Results as given in patent publication US20060172993A1 (priority 2002, published 2006).

System: Patients diagnosed with Alzheimer's Disease
Experiment: Adverse events / safety monitoring in the trial
Format: in vivo, human
Method: Subjects in the Placebo group received 21 weeks (5 months) of placebo medication.
The safety of the drug was also monitored throughout the study. Blood samples for biochemistry and haematology and random urine sample for urinalysis were taken at each visit and at completion for all efficacy testing. Systolic and diastolic blood pressure were measured in the sitting position, pulse and vital signs were recorded at each visit.

## COc1ccc2c3c1O[C@H]1C[C@@H](O)C=C[C@@]31CCN(C)C2 [GAL, galantamine]
16 mg/day
  Serious adverse event Basal cell carcinoma, % of patients: (0.0%)
  Serious adverse event Basal cell carcinoma, number of patients: 0
  Serious adverse event Breast neoplasm female, % of patients: (0.0%)
  Serious adverse event Breast neoplasm female, number of patients: 0
  Serious adverse event Cardiac failure, % of patients: (1.1%)
  Serious adverse event Cardiac failure, number of patients: 3
  Serious adverse event Dehydration, % of patients: (1.1%)
  Serious adverse event Dehydration, number of patients: 3
  Serious adverse event Diarrhea, % of patients: (1.1%)
  Serious adverse event Diarrhea, number of patients: 3
  Serious adverse event Dyspnea, % of patients: (0.7%)
  Serious adverse event Dyspnea, number of patients: 2
  Serious adverse event Fall, % of patients: (0.4%)
  Serious adverse event Fall, number of patients: 1
  Serious adverse event Gi haemorrhage, % of patients: (0.0%)
  Serious adverse event Gi haemorrhage, number of patients: 0
  Serious adverse event Injury, % of patients: (0.4%)
  Serious adverse event Injury, number of patients: 1
  Serious adverse event Myocardial infarction, % of patients: (0.4%)
  Serious adverse event Myocardial infarction, number of patients: 1
  Serious adverse event Nausea, % of patients: (0.7%)
  Serious adverse event Nausea, number of patients: 2
  Serious adverse event Pneumonia, % of patients: (0.7%)
  Serious adverse event Pneumonia, number of patients: 2
  Serious adverse event Sepsis, % of patients: (0.0%)
  Serious adverse event Sepsis, number of patients: 0
  Serious adverse event Surgical intervention, % of patients: (1.1%)
  Serious adverse event Surgical intervention, number of patients: 3
  Serious adverse event Syncope, % of patients: (1.4%)
  Serious adverse event Syncope, number of patients: 4
  Serious adverse event Thrombophlebitis deep, % of patients: (0.0%)
  Serious adverse event Thrombophlebitis deep, number of patients: 0
  Serious adverse event Transient ischemic attack, % of patients: (0.7%)
  Serious adverse event Transient ischemic attack, number of patients: 2
  Serious adverse event Urinary tract infection, % of patients: (0.7%)
  Serious adverse event Urinary tract infection, number of patients: 2
  Serious adverse event Vomiting, % of patients: (0.7%)
  Serious adverse event Vomiting, number of patients: 2
  Total patients with any SAE, %: (10.0%)
  Total patients with any SAE, number: 28
24 mg/day
  Adverse event Agitation, % of patients: (8.1%)
  Adverse event Agitation, number of patients: 22
  Adverse event Anorexia, % of patients: (8.8%)
  Adverse event Anorexia, number of patients: 24
  Adverse event Depression, % of patients: (8.%)
  Adverse event Depression, number of patients: 22
  Adverse event Diarrhea, % of patients: (5.5%)
  Adverse event Diarrhea, number of patients: 15
  Adverse event Dizziness, % of patients: (7.0%)
  Adverse event Dizziness, number of patients: 19
  Adverse event Dyspepsia, % of patients: (5.5%)
  Adverse event Dyspepsia, number of patients: 15
  Adverse event Edema peripheral, % of patients: (2.6%)
  Adverse event Edema peripheral, number of patients: 7
  Adverse event Fall, % of patients: (4.4%)
  Adverse event Fall, number of patients: 12
  Adverse event Headache, % of patients: (4.8%)
  Adverse event Headache, number of patients: 13
  Adverse event Injury, % of patients: (5.9%)
  Adverse event Injury, number of patients: 16
  Adverse event Nausea, % of patients: (16.5%)
  Adverse event Nausea, number of patients: 45
  Adverse event Rhinitis, % of patients: (4.0%)
  Adverse event Rhinitis, number of patients: 11
  Adverse event Urinary tract infection, % of patients: (8.1%)
  Adverse event Urinary tract infection, number of patients: 22
  Adverse event Vomiting, % of patients: (9.9%)
  Adverse event Vomiting, number of patients: 27
  Adverse event Weight decrease, % of patients: (4.8%)
  Adverse event Weight decrease, number of patients: 13
  Adverse event of clinical interest Bradycardia, % of patients: (2.9%)
  Adverse event of clinical interest Bradycardia, number of patients: 8
  Adverse event of clinical interest Convulsions, % of patients: (0.4%)
  Adverse event of clinical interest Convulsions, number of patients: 1
  Adverse event of clinical interest Fatigue, % of patients: (4.8%)
  Adverse event of clinical interest Fatigue, number of patients: 13
  Adverse event of clinical interest Muscle weakness, % of patients: (0.4%)
  Adverse event of clinical interest Muscle weakness, number of patients: 1
  Adverse event of clinical interest Syncope, % of patients: (3.3%)
  Adverse event of clinical interest Syncope, number of patients: 9
  Serious adverse event Abdominal pain, % of patients: (0.0%)
  Serious adverse event Abdominal pain, number of patients: 0
  Serious adverse event Agitation, % of patients: (0.0%)
  Serious adverse event Agitation, number of patients: 0
  Serious adverse event Asthenia, % of patients: (0.4%)
  Serious adverse event Asthenia, number of patients: 1
  Serious adverse event Basal cell carcinoma, % of patients: (0.7%)
  Serious adverse event Basal cell carcinoma, number of patients: 2
  Serious adverse event Breast neoplasm female, % of patients: (0.0%)
  Serious adverse event Breast neoplasm female, number of patients: 0
  Serious adverse event Cardiac failure, % of patients: (0.0%)
  Serious adverse event Cardiac failure, number of patients: 0
  Serious adverse event Dehydration, % of patients: (0.0%)
  Serious adverse event Dehydration, number of patients: 0
  Serious adverse event Diarrhea, % of patients: (0.0%)
  Serious adverse event Diarrhea, number of patients: 0
  Serious adverse event Dyspnea, % of patients: (1.1%)
  Serious adverse event Dyspnea, number of patients: 3.
  Serious adverse event Fall, % of patients: (1.1%)
  Serious adverse event Fall, number of patients: 3
  Serious adverse event Gi haemorrhage, % of patients: (0.7%)
  Serious adverse event Gi haemorrhage, number of patients: 2
  Serious adverse event Injury, % of patients: (1.8%)
  Serious adverse event Injury, number of patients: 5
  Serious adverse event Myocardial infarction, % of patients: (0.4%)
  Serious adverse event Myocardial infarction, number of patients: 1
  Serious adverse event Nausea, % of patients: (0.0%)
  Serious adverse event Nausea, number of patients: 0
  Serious adverse event Pneumonia, % of patients: (1.1%)
  Serious adverse event Pneumonia, number of patients: 3
  Serious adverse event Sepsis, % of patients: (0.0%)
  Serious adverse event Sepsis, number of patients: 0
  Serious adverse event Surgical intervention, % of patients: (0.0%)
  Serious adverse event Surgical intervention, number of patients: 0
  Serious adverse event Syncope, % of patients: (1.8%)
  Serious adverse event Syncope, number of patients: 5
  Serious adverse event Thrombophlebitis deep, % of patients: (0.7%)
  Serious adverse event Thrombophlebitis deep, number of patients: 2
  Serious adverse event Transient ischemic attack, % of patients: (0.0%)
  Serious adverse event Transient ischemic attack, number of patients: 0
  Serious adverse event Urinary tract infection, % of patients: (0.0%)
  Serious adverse event Urinary tract infection, number of patients: 0
  Serious adverse event Vomiting, % of patients: (0.4%)
  Serious adverse event Vomiting, number of patients: 1
  Syncope incidence: slight dose-related increase in incidence
  Total patients with any SAE, %: (12.8%)
  Total patients with any SAE, number: 35
8, 16, 24 mg/day
  Occurrence of nausea, vomiting and anorexia: mild dose-related occurrence at a relatively low incidence
All galantamine doses
  Bradycardia incidence compared with placebo: higher incidence
All treatment groups
  Incidence of serious adverse events: comparable across all treatment groups
Throughout the trial
  Deaths related to trial medication: No death was considered by the investigator to be related to trail medication
